How the values were obtained:
HMGB1 = HMGB1 release from KPC cells (ELISA); type: cell-based, murine; details: 500 μM, 24 h
Method: Surface CRT expression was measured by flow cytometry as previously described^[24a]. Briefly, 7.5×10^4 KPC cells were seeded into 24-well plates. After cell attachment, KPC cells were treated with free oxaliplatin and DACHPt (500 μM), for 24 h. The loosely attached cells were combined with trypsin-treated at adherent cells. The cells were washed in cold PBS and then stained on ice with a primary anti-CRT antibody (Abcam, ab2907, 1:140) in 200 μL BD staining buffer for 0.5 h. The cells were washed in cold PBS and stained with an […] secondary antibody (LifeScience Technologies #A21244) for 30 min on ice. After washing in cold PBS, the cells were assessed in a LSRII flow cytometer (BD Biosciences). In the same experiment, the cell culture media were spun down to collect the supernatants for HMGB1 detection by an ELISA kit (Catalog #ST51011, IBL International GmbH), according to the manufacture's instruction.

KPC cells [1] = assay: Vaccination study with chemo-induced dying KPC cells, re-challenge on contralateral side; details: for infiltration by CD8^+ T-cells / number of Foxp3^+ regulatory T cell (Treg) / increase in CD8^+/Tregs cell ratio compared to PBS control: IHC of contralateral tumors; for increase in CD8^+/Tregs cell ratio compared to PBS control: day 26; for tumor growth on the contralateral side: vaccination with drug-treated dying KPC cells, p<0.05
Method: In order to determine whether these in vitro ICD markers actually represent an in vivo immunogenic effect as specified by a consensus ICD document^[26], we also performed a vaccination study in a syngeneic KPC animal model. Suspensions of dying tumor cells, generated by oxaliplatin or DACHPt treatment for 24 h, were subcutaneously injected on 2 occasions (7 days apart) in left flank of immunocompetent B6129SF1/J mice. This was followed by tumor re-challenge on the contralateral side using untreated KPC cells (FIG. 4, panel C).
Moreover, we also validated the ICD effect of DACHPt in a vaccination experiment, using a published protocol^[26]. Briefly, eight million KPC cells were seeded in a tissue culture dish. After cellular attachment, DACHPt or free oxaliplatin (500 μM) were added for 24 h. Cells were collected and washed before being resuspended in 0.8 mL cold PBS. For vaccination, each mouse received subcutaneous injection (SC) of a 100 μL suspension of chemo-treated cells in the right flank. Control animals received PBS only. The vaccination was repeated after 7 days. Fourteen days after the 1st vaccination, the same mice received the SC injection of healthy KPC cells (1×10^6 cells) in the contralateral side. Tumor growth was measured by a digital caliper every 2-3 days. At the conclusion of the vaccination experiment (Day 26), animals were sacrificed and the tumors collected for IHC immunophenotyping of CD8^+ T cells and FoxP3^+ Treg cells. Primary antibodies to CD8 (#14-0808-82, 1:100) and FoxP3 (#13-5773-82, 1:200) were purchased from ThermoFisher. […] The slides were scanned and images were assessed by using Aperio ImageScope software (Leica).

calreticulin (CRT) = assay: Surface CRT expression in KPC cells (immunofluorescence, flow cytometry); type: cell-based, murine; details: 500 μM, 24 h
Method: Surface CRT expression was visualized by immunofluorescence (IF) staining using an anti-CRT primary antibody, followed by the incubation with Alex488 conjugated secondary antibody. Briefly, ˜1.5×10^4 KPC cells were seeded into an 8-well confocal chamber slide. After 24 h, the cell culture medium was replaced with fresh medium containing the chemo agents, following which the cells were incubated for another 24 h. The cells were washed twice in cold PBS and fixed with 4% paraformaldehyde (PFA) at room temperature (r.t.) for 15 mins. After fixation, the cells were washed twice with cold PBS and blocked with 1% BSA in PBS for 0.5 h. The cells were incubated with anti-CRT primary antibody (ab2907, 1:200) in 200 μL blocking solution at 4° C. overnight, followed by washing with PBS and staining with secondary antibody (Alex488 conjugated goat anti-rabbit secondary antibody, A-11008, 1:1000) together with the nuclear dye, Hoechst 33342, at r.t. for 1 h. The cells were washed with PBS, then imaged by using a Leica SP8-MD confocal microscope under the 100× objective lens.
Surface CRT expression was measured by flow cytometry as previously described^[24a]. Briefly, 7.5×10^4 KPC cells were seeded into 24-well plates. […] After washing in cold PBS, the cells were assessed in a LSRII flow cytometer (BD Biosciences). […]

[2] = Pt drug loading of MSNP/silicasome (EE %, LC %) by ICP-MS/ICP-OES; type: physicochemical; details: DACHPt incubated with bare MSNP, Pt:MSNP 1:5 w/w
Method: In various embodiments the silica nanoparticles are loaded with platinum-based drugs using a combination of coordination and electrostatic interactions. Since the silanol group density on the silica nanoparticle surface(s) (e.g., pore surfaces) an important role in the surface binding of the activated platinum compound (e.g., DACHPt) (see FIG. 2), it is desirable to control the pH during drug loading. Thus, the loading efficiency and capacity was optimized through control of. pH, incubation time, the soaking process, and variation of the drug/particle ratio, etc. Thus, for example, 20 mg MSNP resuspend in 1 mL HEPES buffer (0.1 M, pH 8.5) was mixed with DACHPt complex (4 mg Pt, equal to 8 mg OX). The mixture was sonicated in water bath sonication for 10 mins and then spun down at 15 K rpm for 10 mins. Non-bound Pt in the supernatant, as detected by ICP-OES was used to determine the loading capacity [%=(total Pt—Pt in supernatant)/amount of MSNP*100} and loading efficiency [%=(total Pt—Pt in supernatant)/total Pt*100].
Sixty-five nm bare MSNPs were synthesized at 18 L scale and purified by extensive acidic ethanol washing to remove the CTAC detergent, as reported previously^[4b]. In order to determine the optimal loading condition, we experimented with multiple rounds of drug loading to find the optimal pH, incubation time, sonication condition, and particle/drug feed ratio, etc. Details of the protocol optimization appear online (FIG. 8). In the case of DACHPt loading, purified MSNP (20 mg) from ethanol stock solution was spun at 15,000 rpm for 15 min, and resuspend in 1 mL HEPES buffer (200 mM, pH 8.5). The MSNP suspension was spun down and resuspend in 0.5 mL HEPES buffer (200 mM, pH 8.5). Then, 160 μL DACHPt solution (25 mg/mL, e.q. Pt) and 340 μL pure H2O were added to the MNSP suspension (40 mg/mL, 0.5 mL). The mixture was sonicated for 10 min. In a sonication water bath. The DACHPt-laden MSNPs were spun down at 15,000 rpm for 12 min, followed by collecting the supernatant for Pt elemental analysis by ICP-MS. […]

[3] = PK study, plasma Pt by ICP-MS after single IV injection; details: Pt dose 4.95 mg/kg, one-compartment model
Method: IV injection of non-encapsulated oxaliplatin (at identical Pt molar dose) served as the free drug control because free DACHPt leads to drug precipitates when interacting with Cl ions in the blood^[7b]. Blood collection was performed at 5 mins, 3 h, 6 h, 24 h and 48 h after IV injection, followed by ICP-MS quantification.
The PK study was performed on 10-12-week-old healthy female B6129SF1/J mice. […] After separation of the plasma fraction, the plasma samples were digested with HCl:HNO3 3:1, v/v) in a hot-block, before replenishment in 2% HNO3 for ICP-MS analysis of the Pt content. The PK data were analyzed by PKSolver software, using a one-compartment model^[4].

orthotopic KPC tumor [4] = assay: Survival study in orthotopic KPC model w/wo anti-PD-1; type: in vivo, mice; details: agent alone; Pt 2 mg/kg IV, anti-PD-1 100 μg IP; Kaplan-Meier, Log Rank
Method: Kaplan-Meier plots were used to display the survival rate of the different animal groups (n=5-7, *p<0.05, Log Rank test).
Tumor-bearing mice were randomly assigned into 6 groups (n=5-7) and received IV injection of Pt drug formulations twice per week as designed in FIG. 6. Anti-PD-1 antibody was injected at 100 μg/animal intraperitoneally two days later after each Pt chemo injection. To assess survival rate, animals were monitored daily up to the stage of spontaneous death or approaching moribund status based on the criteria of extensive abdominal ascites, severe dehydration, significant weight loss (>20%), extreme weakness or inactivity^[4, 21, 30] The survival data were plotted as Kaplan-Meier curves, followed by statistical analysis by Log Rank testing (Mantel-Cox), using GraphPad Prism 7.00 software.

KPC cells [5] = assay: Cytotoxicity MTS assay in KPC cells; details: 500 μM, 24 h
Method: The DACHPt silicasome was tested in a list of cancer cell lines to determine the in vitro killing effect, using a MTS assay. […] The MTS assay was conducted with free DACHPt and oxaliplatin as controls. Data are expressed as mean±SD. n=3.
The MTS assay was performed at 24 h after the treatment with oxaliplatin or DACHPt in KPC cells. Data represents mean±SD, n=3.
Cytotoxicity testing of free Pt drugs or drug-laden silicasomes was performed by using a standard MTS assay (CellTiter 96© AQueous One Solution Cell Proliferation Assay, Promega). PDAC cells were plated at a density of 5×10^3 cells per well in a 96-well plate and cultured for 24 h before the medium was replaced with fresh medium containing free OX, free DACHPt or DACHPt laden silicasome at indicated concentrations. Non-treated cells were used as control. After treatment for 48 h, the medium was replaced with 100 μL of fresh medium containing MTS solution (5:1, v/v medium/CellTiter 96© Aqueous stock solution), and the cells were further cultured at 37° C. for 1 h. The absorbance of the culture wells at 490 nm was recorded by a microplate reader (M5e, Molecular Device, USA). Wells receiving the MTS solution without cells were used as blank. The relative cell viability (%) is [(the absorption of treated well−blank)/(the absorption of control well−blank)]×100%.

[6] = Safety assessment by H&E histology of bone marrow and major organs (efficacy study)
Method: KPC-luc cells (˜1×10^6) were orthotopically injected into the pancreas in mice. […] The control includes saline as well as free oxaliplatin. […] Tumor-bearing mice received IV injection of the indicated therapy every 3 days for a total of 3 administrations. Before animal sacrifice (72 h post the last IV injection), the mice received intraperitoneal injection of D-luciferin, followed by ex vivo bioluminescence imaging using an IVIS imaging system. Primary tumor and major organs (e.g. sternum, heart, liver, spleen, lung and kidneys) were harvested and fixed in 10% formalin, followed by paraffin embedding and sectioning to provide 4 μm slices for histological analysis in the UCLA Translational Pathology Core Laboratory (TPCL). H&E staining was performed to look at the pathological abnormality in mice receiving different treatments. The H&E slides for toxicity assessment were read in a blinded fashion by an experienced veterinary pathologist.

orthotopic KPC tumor [7] = assay: Anti-PDAC efficacy in orthotopic KPC model; type: in vivo, B6129SF1/J mice; details: Pt 2 mg/kg IV every 3 days, 3 administrations, day 17
Method: An efficacy study was performed by IV injection of the silicasome carrier eight days after orthotopic KPC implantation in the pancreas of B6129SF1/J mice (FIG. 3, panel D). This corresponds to beginning the treatment at a primary tumor size of 5-10 mm in the absence of macro-metastases^[21]. IV injections were repeated every 3 days for a total of 3 repeats. The control groups included animals receiving IV saline or free oxaliplatin. The tumor growth at the primary and metastatic sites was followed by IVIS bioluminescence imaging up to conclusion of the experiment on day 17 (FIG. 3, panel D, right).
KPC-luc cells (˜1×10^6) were orthotopically injected into the pancreas in mice. […] The control includes saline as well as free oxaliplatin. This dose arrangement is in agreement with the literature^[27]. Tumor-bearing mice received IV injection of the indicated therapy every 3 days for a total of 3 administrations. Before animal sacrifice (72 h post the last IV injection), the mice received intraperitoneal injection of D-luciferin, followed by ex vivo bioluminescence imaging using an IVIS imaging system. […] The H&E slides for toxicity assessment were read in a blinded fashion by an experienced veterinary pathologist.

Structure (SMILES) | HMGB1 release into the supernatant (HMGB1) | infiltration by CD8^+ T-cells (KPC cells [1]) | number of Foxp3^+ regulatory T cell (Treg) (KPC cells [1]) | increase in CD8^+/Tregs cell ratio compared to PBS control (KPC cells [1]) [fold] | tumor free mice (out of 6) (KPC cells [1]; vaccination study) | tumor growth on the contralateral side (KPC cells [1]) | cell surface fluorescence of CRT (calreticulin (CRT)) | encapsulation efficiency (EE %) ([2]; neutral pH 7.4) [%] | encapsulation efficiency (EE %) ([2]; pH 8.5, before lipid coating) [%] | encapsulation efficiency (EE %) ([2]; weak acidic pH 5.5) [%] | circulatory half-life (t1/2) [3] [min] | survival outcome (orthotopic KPC tumor [4]) | killing of cells / compromised cell viability (MTS) (KPC cells [5]) [%] | histology of major organs (liver, spleen, kidney, lung, heart) [6] | reduction in cellularity of the hemopoetic cells in the bone marrow [6] [%] | tumor inhibition (primary tumor weight) (orthotopic KPC tumor [7]) [%]
NC1CCCCC1N.[Pt+2] (stereo not shown) [DACHPt, (1,2-diaminocyclohexane)platinum(II)] | increase of released HMGB1 | increase in infiltration | reduced number | 6 | 1 | growth retardation | significant increase | 60 | ~75 | 25 |  |  |  |  |  | 
O=C1[O][Pt]2([NH][C@@H]3CCCC[C@H]3[NH]2)[O]C1=O [oxaliplatin] | increase of released HMGB1 | increase in infiltration | reduced number | 4.8 |  | growth retardation | significant increase |  |  |  | 21 ± 10.2 | No obvious benefit | 70 | No major histological abnormalities | > 50 | ~5
